Experimental data as given in PMC3808999 (Molecular cell, 2013).

What was measured:
[1] = target: human STING C-terminal domain (CTD, residues 139–379) (Homo sapiens, UniProt Q86WV6, H232R); assay: Isothermal titration calorimetry; conditions: direct ITC titration
R232A human STING = R232A human STING (Homo sapiens, UniProt Q86WV6, H232A); assay: IFNβ induction; conditions: L929 cells expressing R232A human STING; IFN-β RNA by q-RT-PCR
WT human STING = WT human STING (Homo sapiens, UniProt Q86WV6, H232R); assay: IFNβ induction; conditions: L929 cells expressing WT human STING; IFN-β RNA by q-RT-PCR
R232H human STING = R232H human STING (Homo sapiens, UniProt Q86WV6); assay: IFNβ induction; conditions: L929 cells expressing R232H human STING; IFN-β RNA by q-RT-PCR
R232H human STING, sequence (Q86WV6 whole entry, stated change not applied): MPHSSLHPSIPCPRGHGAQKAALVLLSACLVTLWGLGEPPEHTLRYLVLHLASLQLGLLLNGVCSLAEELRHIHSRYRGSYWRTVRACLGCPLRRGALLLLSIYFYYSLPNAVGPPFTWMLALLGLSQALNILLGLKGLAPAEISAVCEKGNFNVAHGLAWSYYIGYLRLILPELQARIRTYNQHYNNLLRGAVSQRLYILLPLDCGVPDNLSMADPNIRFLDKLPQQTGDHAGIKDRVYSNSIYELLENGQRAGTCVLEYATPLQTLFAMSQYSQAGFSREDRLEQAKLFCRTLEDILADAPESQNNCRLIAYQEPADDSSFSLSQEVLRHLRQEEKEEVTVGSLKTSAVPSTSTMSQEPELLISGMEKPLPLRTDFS

R232A human STING, sequence (Q86WV6 whole entry H232A): as the sequence (Q86WV6 whole entry, stated change not applied) above, with H232A counted along it
WT human STING, sequence (Q86WV6 whole entry H232R): as the sequence (Q86WV6 whole entry, stated change not applied) above, with H232R counted along it
human STING C-terminal domain (CTD, residues 139–379), sequence (Q86WV6 139-379 H232R): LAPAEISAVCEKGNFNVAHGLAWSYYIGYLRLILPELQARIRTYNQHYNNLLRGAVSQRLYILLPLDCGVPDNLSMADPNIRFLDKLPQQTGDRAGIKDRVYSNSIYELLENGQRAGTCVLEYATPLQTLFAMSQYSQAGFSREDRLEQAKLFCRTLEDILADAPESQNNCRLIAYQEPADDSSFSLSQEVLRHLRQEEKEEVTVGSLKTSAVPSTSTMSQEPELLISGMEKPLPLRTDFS

| IFNβ induction (R232A human STING) | IFNβ induction (WT human STING) | IFNβ induction (R232H human STING) | Compound | heat character of binding to STING [1] |
| --- | --- | --- | --- | --- |
| – | – | – | Nc1nc2c(ncn2[C@@H]2O[C@@H]3COP(=O)(O)O[C@H]4[C@@H](O)[C@H](n5cnc6c(=O)[nH]c(N)nc65)O[C@@H]4COP(=O)(O)O[C@H]3[C@H]2O)c(=O)[nH]1 [c-di-GMP, cyclic di-GMP] | exothermic |
| stimulated IFNβ expression | stimulated IFNβ expression | stimulated IFNβ expression | poly[I:C] | – |
